MIC, ED50 mg/kg and ED50 data for 5 compounds are collected here from ChEMBL document CHEMBL1123847, “Synthesis and structure-activity relationship of 1-aryl-6,8-difluoroquinolone antibacterial agents” (1987).

What all share (type): functional
One assay deals with Klebsiella aerogenes. The assay can be described thus: In vitro antibacterial activity against Enterobacter aerogenes ATCC 13048.
Assay [1] concerns Escherichia coli. The assay can be described thus: In vitro antibacterial activity against Escherichia coli Juhl.
The test system of a further assay is Klebsiella pneumoniae. Put plainly: In vitro antibacterial activity against Klebsiella pneumoniae 8045.
Assay [2] deals with Pseudomonas aeruginosa. Put plainly: In vitro antibacterial activity against Pseudomonas aeruginosa K799/WT.
The test system of assay [3] is Staphylococcus epidermidis. The assay can be described thus: In vitro antibacterial activity against Staphylococcus epidermis 3519.
In the next assay the test system is Streptococcus pyogenes. Put plainly: In vitro antibacterial activity against Streptococcus pyogenes 930.
Assay [4] concerns Staphylococcus aureus. Put plainly: In vitro antibacterial activity against Staphylococcus aureus CMX 686B.
In assay [5] the test system is Staphylococcus aureus. Put plainly: In vitro antibacterial activity against Staphylococcus aureus ATCC 6538P.
For the next assay, the system named is Enterococcus faecium. Put plainly: In vitro antibacterial activity against Streptococcus faecium ATCC 8043.
For the next assay, the system named is Acinetobacter. Put plainly: In vitro antibacterial activity against Acinetobacter CMX 669.
The test system of assay [6] is Pseudomonas aeruginosa. The assay can be described thus: In vitro antibacterial activity against Pseudomonas aeruginosa 5007.
Assay [7] relates to Escherichia coli. The assay can be described thus: […] against Escherichia coli Juhl (100 X LD50) (s.c. administration); Range is between(1.0-1.8).
Assay [8] has as its system Escherichia coli. Put plainly: […] against Escherichia coli Juhl (100 X LD50) (s.c. administration); Range is between(0.2-0.5). The settings on record: sc.
Assay [9] concerns Pseudomonas aeruginosa. Put plainly: FIn vitro antibacterial activity against Pseudomonas aeruginosa K799/WT.
In assay [10] the test system is Escherichia coli. Put plainly: […] against Escherichia coli Juhl (100 X LD50); Range is between (2.0-5.0).
Assay [11] concerns Escherichia coli. Put plainly: Compound was evaluated in vivo for antibacterial activity against Escherichia coli Juhl (100 X LD50) (s.c. administration); range is between (0.6-2.5). The note with it: sc.
Assay [12] concerns Escherichia coli. The assay can be described thus: Compound was evaluated in vivo for antibacterial activity against Escherichia coli Juhl (100 X LD50).
Assay [13] concerns Pseudomonas aeruginosa. Put plainly: […] against Pseudomonas aeruginosa 5007 (100 X LD50) (peroral administration); Range is between (15.8-[…]). The settings on record: po.
The test system of assay [14] is Pseudomonas aeruginosa. The assay can be described thus: […] against Pseudomonas aeruginosa 5007 (100 X LD50) (subcutaneous administration); Range is between (4.9-8.1). The note with it: sc.
Assay [15] deals with Pseudomonas aeruginosa. The assay can be described thus: Compound was evaluated in vivo for antibacterial activity against Pseudomonas aeruginosa 5007 (100 X LD50) (p.o. administration); Range is between (15.8-39.6). The settings on record: po.
Assay [16] concerns Pseudomonas aeruginosa. Put plainly: Compound was evaluated in vivo for antibacterial activity against Pseudomonas aeruginosa 5007 (100 X LD50) (s.c. administration); Range is between (4.9-8.1). The settings on record: sc.
In assay [17] the test system is Staphylococcus aureus. Put plainly: Compound was evaluated in vivo for antibacterial activity against Staphylococcus aureus NCTC 10649 (100 X LD50) (p.o. administration); Range is between (7.9-19-7). The note with it: po.
The test system of assay [18] is Staphylococcus aureus. Put plainly: Compound was evaluated in vivo for antibacterial activity against Staphylococcus aureus NCTC 10649 (100 X LD50) (s.c. administration); Range is between (1.0-2.5). The note with it: sc.
In assay [19] the test system is Staphylococcus aureus. The assay can be described thus: In vitro mouse protection test against Staphylococcus aureus NCTC 10649 (100 X LD50) (s.c. administration); Range is between (1.0-2.5). The settings on record: sc.
Assay [20] relates to Staphylococcus aureus. Put plainly: In vitro mouse protection test against Staphylococcus aureus NCTC 10649 (100 X LD50),(peroral administration); Range is between (7.9-19-7). The settings on record: po.
Assay [21] has as its system Escherichia coli. The assay can be described thus: […] against Escherichia coli Juhl (100 X LD50) (s.c. administration); Range is between (0.6-1.5). The settings on record: sc.
For assay [22], the system named is Escherichia coli. Put plainly: Compound was evaluated in vivo for antibacterial activity against Escherichia coli Juhl (100 X LD50) (p.o. administration); Range is between (2.0-5.0). The settings on record: po.

Usually MIC stands for the lowest concentration that inhibits growth of the organism. Low values mean greater potency, high ones weaker potency. For orientation: ED50 means the midpoint of the dose-response relation. A lower ED50 goes with greater potency.

≈ marks a conversion by molar mass, not a printed value.

For `CCn1cc(C(=O)O)c(=O)c2cc(F)c(N3CCNCC3)cc21` [NORFLOXACIN], the MIC in the assay on Klebsiella aerogenes was found to be 0.2 µg/mL (≈ 0.626 µM); in the assay on Escherichia coli [1], 0.1 µg/mL (≈ 0.313 µM); against Klebsiella pneumoniae, 0.1 µg/mL (≈ 0.313 µM); against Pseudomonas aeruginosa [2] it was 0.39 µg/mL (≈ 1.22 µM); in [3] it was 1.56 µg/mL (≈ 4.89 µM); in the assay with Streptococcus pyogenes, 3.1 µg/mL (≈ 9.71 µM). Also, the MIC with Staphylococcus aureus [4] is 0.78 µg/mL (≈ 2.44 µM); in the assay with Staphylococcus aureus [5] it was 0.78 µg/mL (≈ 2.44 µM); in the assay with Enterococcus faecium, 0.78 µg/mL (≈ 2.44 µM); in the assay with Acinetobacter, 6.2 µg/mL (≈ 19.4 µM); in the assay on Pseudomonas aeruginosa [6], 0.39 µg/mL (≈ 1.22 µM).

Turning to `CN1CCN(c2c(F)cc3c(=O)c(C(=O)O)cn(-c4ccc(F)cc4)c3c2F)CC1`, the MIC with Klebsiella aerogenes was 0.78 µg/mL (≈ 1.87 µM); in the assay with Escherichia coli [1], 0.39 µg/mL (≈ 0.934 µM); against Klebsiella pneumoniae, 0.39 µg/mL (≈ 0.934 µM); against Pseudomonas aeruginosa [2], 3.1 µg/mL (≈ 7.43 µM); in assay [3], 0.78 µg/mL (≈ 1.87 µM); against Streptococcus pyogenes, 3.1 µg/mL (≈ 7.43 µM). In addition, the MIC with Staphylococcus aureus [4] turned out to be 0.39 µg/mL (≈ 0.934 µM); with Staphylococcus aureus [5], 0.39 µg/mL (≈ 0.934 µM); with Enterococcus faecium it was 3.1 µg/mL (≈ 7.43 µM); with Acinetobacter, 0.39 µg/mL (≈ 0.934 µM); with Pseudomonas aeruginosa [6], 3.1 µg/mL (≈ 7.43 µM). Further, in the assay with Escherichia coli [7], the ED50 mg/kg stood at 1.3.

Take `O=C(O)c1cn(-c2ccc(F)cc2F)c2c(F)c(N3CCNCC3)c(F)cc2c1=O`: in the assay with Escherichia coli [8], the ED50 was 0.3 mg/kg. Further, the MIC against Klebsiella aerogenes turned out to be 0.2 µg/mL (≈ 0.475 µM); with Escherichia coli [1], 0.05 µg/mL (≈ 0.119 µM); with Klebsiella pneumoniae it was 0.05 µg/mL (≈ 0.119 µM); in the assay with Pseudomonas aeruginosa [9], 0.78 µg/mL (≈ 1.85 µM); in assay [3], 0.78 µg/mL (≈ 1.85 µM); against Streptococcus pyogenes, 1.56 µg/mL (≈ 3.7 µM). Moreover, the MIC worked out at 0.39 µg/mL (≈ 0.926 µM) in the assay with Staphylococcus aureus [4]; 0.39 µg/mL (≈ 0.926 µM) in the assay with Staphylococcus aureus [5]; 1.56 µg/mL (≈ 3.7 µM) in the assay on Enterococcus faecium; 0.39 µg/mL (≈ 0.926 µM) in the assay on Acinetobacter; 0.78 µg/mL (≈ 1.85 µM) with Pseudomonas aeruginosa [6].

On to `NC1CCN(c2cc3c(cc2F)c(=O)c(C(=O)O)cn3-c2ccc(F)cc2)C1` (stereo not given), for which the MIC in the assay with Klebsiella aerogenes was found to be 0.05 µg/mL (≈ 0.13 µM); against Escherichia coli [1], 0.02 µg/mL (≈ 0.0519 µM); against Klebsiella pneumoniae, 0.02 µg/mL (≈ 0.0519 µM); in the assay on Pseudomonas aeruginosa [2], 0.2 µg/mL (≈ 0.519 µM); in [3] it was 0.05 µg/mL (≈ 0.13 µM); with Streptococcus pyogenes, 0.1 µg/mL (≈ 0.259 µM). Moreover, the MIC in the assay on Staphylococcus aureus [4] was found to be 0.05 µg/mL (≈ 0.13 µM); against Staphylococcus aureus [5], 0.05 µg/mL (≈ 0.13 µM); in the assay on Enterococcus faecium it was 0.78 µg/mL (≈ 2.02 µM); against Acinetobacter, 0.2 µg/mL (≈ 0.519 µM); in the assay on Pseudomonas aeruginosa [6], 0.2 µg/mL (≈ 0.519 µM).

On to `O=C(O)c1cn(-c2ccc(F)cc2)c2c(F)c(N3CCNCC3)c(F)cc2c1=O`, for which the ED50 with Escherichia coli [10] was 3.2 mg/kg; in the assay with Escherichia coli [11], 1 mg/kg; with Pseudomonas aeruginosa [13] it was 25 mg/kg; in the assay on Pseudomonas aeruginosa [14], 6.3 mg/kg; in the assay with Pseudomonas aeruginosa [15], 25 mg/kg; in the assay with Pseudomonas aeruginosa [16], 6.3 mg/kg. In addition, the ED50 in the assay on Staphylococcus aureus [17] is 12.5 mg/kg; in the assay on Staphylococcus aureus [18], 1.6 mg/kg; in the assay with Staphylococcus aureus [19], 1.6 mg/kg; in the assay on Staphylococcus aureus [20], 12.5 mg/kg; in the assay with Escherichia coli [21] it was 1 mg/kg; in the assay on Escherichia coli [22] it was 3.2 mg/kg. Also, the MIC was 0.1 µg/mL (≈ 0.248 µM) against Escherichia coli [12]; 0.1 µg/mL (≈ 0.248 µM) against Klebsiella aerogenes; 0.1 µg/mL (≈ 0.248 µM) in the assay on Escherichia coli [1]; 0.05 µg/mL (≈ 0.124 µM) in the assay with Klebsiella pneumoniae; 0.39 µg/mL (≈ 0.967 µM) against Pseudomonas aeruginosa [2]; 0.78 µg/mL (≈ 1.93 µM) in [3]. For the same compound, the MIC in the assay on Streptococcus pyogenes came out at 1.56 µg/mL (≈ 3.87 µM); with Staphylococcus aureus [4] it was 0.39 µg/mL (≈ 0.967 µM); against Staphylococcus aureus [5], 0.39 µg/mL (≈ 0.967 µM); in the assay with Enterococcus faecium, 6.2 µg/mL (≈ 15.4 µM); in the assay on Acinetobacter, 0.39 µg/mL (≈ 0.967 µM); against Pseudomonas aeruginosa [6], 0.78 µg/mL (≈ 1.93 µM).
